Experimental data: ChEMBL document CHEMBL5325462, “Regioselective synthesis and in vitro cytotoxicity evaluation of 3-thiooxindole derivatives: Tubulin polymerization inhibition and apoptosis inducing studies” (Bioorg Med Chem, 2023)
Calls of active or inactive are those of the source. No cut-off for these calls is given here.

How the values were obtained:
HCT-116 [1] = assay: Cell cycle arrest in human HCT-116 cells assessed as accumulation of cells in G0/G1 phase at 13.28 uM measured after 48 hrs by PI staining based flow cytometry method (reference value: 79%); type: functional
HCT-116 [2] = assay: Induction of morphological changes in human HCT-116 cells assessed as cell detachment at 3.32 to 13.28 uM measured after 48 hrs by phase contrast microscope; type: functional, cell-based; details: dose 3.32-13.28 µM
HCT-116 [3] = assay: Inhibition of cell invasion in human HCT-116 cells at 3.32 to 13.28 uM measured after 48 hrs by phase contrast microscopic analysis; type: functional, cell-based; details: dose 3.32-13.28 µM
HCT-116 [4] = assay: Induction of apoptosis in human HCT-116 cells assessed as late apoptotic cells at 3.32 uM incubated for 24 hrs by Annexin V-FITC/PI staining based flow cytometry analysis (Rvb= 0.1%); type: functional
Cell membrane [5] = assay: Induction of mitochondrial membrane potential loss in human HCT-116 cells assessed as polarized cells at 3.32 uM incubated for 72 hrs by JC-1 staining based flow cytometry analysis (reference value: 99.6 %); type: subcellular
HCT-116 [6] = assay: Cell cycle arrest in human HCT-116 cells assessed as accumulation of cells in sub-G1 phase at 3.32 uM measured after 48 hrs by PI staining based flow cytometry method (reference value: 4.6%); type: functional
Cell membrane [7] = assay: Induction of mitochondrial membrane potential loss in human HCT-116 cells assessed as polarized cells at 13.28 uM incubated for 72 hrs by JC-1 staining based flow cytometry analysis (reference value: 99.6 %); type: subcellular
SK-MEL-28 = assay: Cytotoxicity against human SK-MEL-28 cells assessed as inhibition of cell growth measured after 72 hrs by MTT assay; type: functional, cell-based; details: SK-MEL-28, 72 h
Cell membrane [8] = assay: Induction of mitochondrial membrane potential loss in human HCT-116 cells assessed as depolarized cells at 6.64 uM incubated for 72 hrs by JC-1 staining based flow cytometry analysis (reference value: 0.4 %); type: subcellular
HCT-116 [9] = assay: Induction of nuclear morphological changes in human HCT-116 cells assessed as change in nuclear condensation measured after 48 hrs by DAPI-staining based fluorescence microscopic analysis; type: functional, cell-based
HCT-116 [10] = assay: Cell cycle arrest in human HCT-116 cells assessed as accumulation of cells in sub-G1 phase at 13.28 uM measured after 48 hrs by PI staining based flow cytometry method (reference value: 4.6%); type: functional
Cell membrane [11] = assay: Induction of mitochondrial membrane potential loss in human HCT-116 cells assessed as depolarized cells at 13.28 uM incubated for 72 hrs by JC-1 staining based flow cytometry analysis (reference value: 0.4 %); type: subcellular
Tubulin = assay: Inhibition of tubulin polymerization (unknown origin) by absorbance based analysis; type: protein-complex assay, Homo sapiens
HCT-116 [12] = assay: Induction of morphological changes in human HCT-116 cells assessed as formation of necrotic bodies incubated for 24 hrs by acridine orange/ethidium bromide staining based fluorescence microscopic analysis; type: functional, cell-based
HCT-116 [13] = assay: Cell cycle arrest in human HCT-116 cells assessed as accumulation of cells in G2/M phase at 6.64 uM measured after 48 hrs by PI staining based flow cytometry method (reference value: 6.7%); type: functional
HCT-116 [14] = assay: Induction of apoptosis in human HCT-116 cells assessed as viable cells at 6.64 uM incubated for 24 hrs by Annexin V-FITC/PI staining based flow cytometry analysis (Rvb= 99.7%); type: functional; details: read-out: Activity
HCT-116 [15] = assay: Cell cycle arrest in human HCT-116 cells assessed as accumulation of cells in S phase at 3.32 uM measured after 48 hrs by PI staining based flow cytometry method (reference value: 8.8%); type: functional
Cell membrane [16] = assay: Induction of mitochondrial membrane potential loss in human HCT-116 cells assessed as depolarized cells at 3.32 uM incubated for 72 hrs by JC-1 staining based flow cytometry analysis (reference value: 0.4 %); type: subcellular
HCT-116 [17] = assay: Induction of apoptosis in human HCT-116 cells assessed as viable cells at 13.28 uM incubated for 24 hrs by Annexin V-FITC/PI staining based flow cytometry analysis (Rvb= 99.7%); type: functional; details: read-out: Activity
HCT-116 [18] = assay: Induction of apoptosis in human HCT-116 cells assessed as early apoptotic cells at 6.64 uM incubated for 24 hrs by Annexin V-FITC/PI staining based flow cytometry analysis (Rvb= 0.2%); type: functional
HCT-116 [19] = assay: Cell cycle arrest in human HCT-116 cells assessed as accumulation of cells in sub-G1 phase at 6.64 uM measured after 48 hrs by PI staining based flow cytometry method (reference value: 4.6%); type: functional
HCT-116 [20] = assay: Induction of nuclear morphological changes in human HCT-116 cells assessed as horseshoe shaped nuclei formation measured after 48 hrs by DAPI-staining based fluorescence microscopic analysis; type: functional, cell-based
HCT-116 [21] = assay: Induction of apoptosis in human HCT-116 cells assessed as early apoptotic cells at 13.28 uM incubated for 24 hrs by Annexin V-FITC/PI staining based flow cytometry analysis (Rvb= 0.2%); type: functional
HCT-116 [22] = assay: Cell cycle arrest in human HCT-116 cells assessed as accumulation of cells in S phase at 6.64 uM measured after 48 hrs by PI staining based flow cytometry method (reference value: 8.8%); type: functional
HCT-116 [23] = assay: Cytotoxicity against human HCT-116 cells assessed as inhibition of cell growth measured after 72 hrs by MTT assay; type: functional, cell-based; details: HCT-116, 72 h
HCT-116 [24] = assay: Cell cycle arrest in human HCT-116 cells assessed as accumulation of cells in G0/G1 phase at 3.32 uM measured after 48 hrs by PI staining based flow cytometry method (reference value: 79%); type: functional
HCT-116 [25] = assay: Induction of apoptosis in human HCT-116 cells assessed as reduction in cell viability at 3.32 to 13.28 uM measured after 48 hrs by phase contrast microscope; type: functional, cell-based; details: dose 3.32-13.28 µM
Cell membrane [26] = assay: Induction of mitochondrial membrane potential loss in human HCT-116 cells assessed as polarized cells at 6.64 uM incubated for 72 hrs by JC-1 staining based flow cytometry analysis (reference value: 99.6 %); type: subcellular
HCT-116 [27] = assay: Induction of apoptosis in human HCT-116 cells assessed as early apoptotic cells at 3.32 uM incubated for 24 hrs by Annexin V-FITC/PI staining based flow cytometry analysis (Rvb= 0.2%); type: functional
HCT-116 [28] = assay: Induction of morphological changes in human HCT-116 cells assessed as formation of apoptotic bodies incubated for 24 hrs by acridine orange/ethidium bromide staining based fluorescence microscopic analysis; type: functional, cell-based
BT-474 = assay: Cytotoxicity against human BT-474 cells assessed as inhibition of cell growth measured after 72 hrs by MTT assay; type: functional, cell-based; details: BT-474, 72 h
HCT-116 [29] = assay: Induction of nuclear morphological changes in human HCT-116 cells assessed as change in nuclear shape measured after 48 hrs by DAPI-staining based fluorescence microscopic analysis; type: functional, cell-based
HCT-116 [30] = assay: Induction of morphological changes in human HCT-116 cells assessed as cell nucleus shrinkage at 3.32 to 13.28 uM measured after 48 hrs by phase contrast microscope; type: functional, cell-based; details: dose 3.32-13.28 µM
HCT-116 [31] = assay: Cell cycle arrest in human HCT-116 cells assessed as accumulation of cells in S phase at 13.28 uM measured after 48 hrs by PI staining based flow cytometry method (reference value: 8.8%); type: functional

- Activity (Cell membrane [5]): 97%
- Activity (Cell membrane [7]): 86.7%
- Activity (Cell membrane [8]): 5.9%
- Activity (Cell membrane [11]): 13.3%
- IC50 (Tubulin): 9.73 µM
- Activity (Cell membrane [16]): 3%
- Activity (Cell membrane [26]): 94.1%
SMILES: CC(C)(C)S(=O)(=O)NCC1(Sc2nc3ccccc3[nH]2)C(=O)N(Cc2ccc(Br)cc2)c2ccccc21 (centres undefined)
- Activity (HCT-116 [1]): 41%
- Activity (HCT-116 [2]): Active
- inhibition (HCT-116 [3]): Active
- Activity (HCT-116 [4]): 53.4%
- Activity (HCT-116 [6]): 24.4%
- IC50 (SK-MEL-28): 15.3 µM
- Activity (HCT-116 [9]): Dose-Dependent Effect
- Activity (HCT-116 [10]): 32.3%
- Activity (HCT-116 [12]): Active
- Activity (HCT-116 [13]): 13.3%
- viability at 6.64 µM (HCT-116 [14]): 9.9%
- Activity (HCT-116 [15]): 11.7%
- viability at 13.28 µM (HCT-116 [17]): 4.2%
- Activity (HCT-116 [18]): 21.4%
- Activity (HCT-116 [19]): 27.4%
- Activity (HCT-116 [20]): Dose-Dependent Effect
- Activity (HCT-116 [21]): 8.9%
- Activity (HCT-116 [22]): 11.1%
- IC50 (HCT-116 [23]): 6.64 µM
- Activity (HCT-116 [24]): 52%
- Activity (HCT-116 [25]): Active
- Activity (HCT-116 [27]): 41.8%
- Activity (HCT-116 [28]): Dose-Dependent Effect
- IC50 (BT-474): 14.2 µM
- Activity (HCT-116 [29]): Dose-Dependent Effect
- Activity (HCT-116 [30]): Active
- Activity (HCT-116 [31]): 8.6%
